For orientation: melting point means the temperature of the solid-liquid transition.

For `CN1C2CCC1CN(C(=O)c1ccc(-c3cccc(C(F)(F)F)c3)o1)C2.O=C(O)/C=C/C(=O)O`, the melting point lay in the range of 108.7 to 109.4 °C. To `CN1C2CCC1CN(C(=O)c1cc3ccccc3o1)C2.O=C(O)/C=C/C(=O)O` belongs 150 to 155 °C; to `CN1C2CCC1CN(C(=O)c1ccc(-c3ccccc3)cc1)C2.O=C(O)/C=C/C(=O)O`, 197 to 207 °C. The figure for `CC(=O)Nc1cccc(-c2ccc(C(=O)N3CC4CCC(C3)N4C)o2)c1.O=C(O)/C=C/C(=O)O` is 189 to 193 °C.
